Test results from patent US4405643A, “Treatment of acute pulmonary edema with arginine esters” (Italfarmaco S.p.A., priority 1979, dated 1983).

Legend:
[1] = Protection against pulmonary edema (adrenaline-induced acute edema of the lungs); format: in vivo, male albino rats of Wistar type; conditions: parenteral, 15 min before adrenaline
Experimental: The method of A. M. Rothschild and A. Castania (Arch. Pharmacol., 295, 177 (1976)), has been used to develop the acute edema in the lungs and substances of known therapeutic activity have been used for comparison purpose.
For the test, male albino rats of Wistar type of average weight 250-350 grams, have been used for the test. The rats were stabilized for a period of ten days at a temperature of 21°±1° C., under conditions of controlled diet and water "ad libitum". Prior to the test, the animals were divided into groups of ten for the purpose of achieving good randomization. Each dose was tried on three groups of animals. The animals were anesthetized with pentobarbital in a dose of 30 mg/kg at the beginning of the test. After the animals were in complete narcosis, the following substances were administered by the parenteral route:
1. to the animals as controls, physiological saline solution in the amount of 1 ml/kg,
2. to the animals in the test, a solution of the substance being tested in physiological saline solution in the amount of 1 ml/kg in the doses reported hereinbelow in the table.
After a period of 15 minutes, for the purpose of determining the protective activity of the substances, adrenaline was administered in the amount of 16 γ/kg by the endovenous route and in physiological saline solution, for the purpose of causing acute edema.
After five minutes, the animals were killed by removal of the head, the lungs were removed and the weight of the lungs were determined. The results of the test are reported in Table 1 hereinbelow, together with the concentration of the substances and the relative inhibition of edema in percent.

[2] = Protection against shock caused by endotoxins (lipopolysaccharide B from S. Enteritidis); format: in vivo, male rats of Wistar type; conditions: parenteral, 1 h before endotoxin, after 24 h
Excerpt: Endotoxin-induced shock has been produced according to the method reported by A. Bertelli and L. Donati, in the publication "The Influence of Some Enzymes and Enzymes Inhibitors in Shock", published in "SHOCK Biochemical,Pharmaceutical and Clinical Aspects"; A. Bertelli and N. Back Editors, Advances in Experimental Medicine and Biology; Volume 9, Plenum Press New York - London 1970, page 215. By way of comparison, there has been used a substance of well known therapeutical activity, specifically aprotinine, the commercial products marketed by Farbenfabriken Bayer, under the name "Trasylol". Male rats of Wistar type of 120 grams by weight ±10 have been used. The rats were previously stabilized for a period of ten days at a temperature of 21°±1° C. under a controlled diet and water "ad libitum". Twenty-four hours prior to the test, the animals were divided in groups of ten for the purpose of achieving randomization. Every single dose has been tried on six groups of animals.
Lipopolysaccharide B from S. Enteritidis (Difco Labs.) was used as the endotoxin. This substance was administered in the dose of 10 mg/kg by the endoperitoneal route, one hour after administration of the substance being administered by the parenteral route or in the form of a physiological solution in equal volume per kilogram to the animals being used as control.
The mortality in percent was determined in the animals being tested as compared with the controls after twenty-four hours.

[3] = Protection against anaphylactic shock (horse serum); format: in vivo, male albino guinea pigs; conditions: parenteral, with horse serum challenge, after 12 h
Experimental: The anaphylactic shock has been induced according to the method of S. M. Feinberg, M. Pharmacol. Exp. Therapeut., 99, 195 (1950). There have been used male albino guinea pigs of average weight, 350±20 grams previously stabilized for a period of ten days at a temperature of 21°±1° C., under conditions of controlled diet and water "ad libitum". Three days before the beginning of the experiment, the animals are divided in groups of ten for the purpose of achieving good randomization. Each single dose has been tried on three groups of animals.
The sensitization has been carried out by administration of 1 ml/guinea pig through the endovenous route of horse serum, (whole serum, not treated with preservatives) diluted 1:10 in physiological saline solution. After 14 days, the solutions of the substances being tested and the samples of physiological solutions for use with the controls are administered through the parenteral route. Simultaneously, 1 ml/guinea pig of horse serum, undiluted is administered, this substance being used as the agent which prompts the anaphylaxis. The percentage of mortality is determined after 12 hours.

[4] = system: Fibrin Degradation Products; experiment: Inhibition of hyperfibrinolysis caused by urokinase (F.D.P., staphylococcal clumping test); format: in vivo, Wistar rats; conditions: parenteral, 30 min before urokinase 2500 U.I/rat
Experimental: The induction of hyperfibrinolysis state is caused by administration of urokinase. The determination of the inhibition is carried out by determination of the F.D.P. value, that is Fibrin Degradation Products, according to the procedure of J. Hawiger et al, J. Lab. Clin. Med. 75, 93 (1970), by means of the staphylococcal clumping test (Boehringer Mannheim GmbH test).
There are used Wistar rats of 300 grams ±10 by weight previously stabilized for a period of ten days at a temperature of 21°±1° C., under conditions of controlled diet and water "ad libitum". Twenty-four hours prior to the beginning of the experiment, the animals are divided in groups of ten for the purpose of achieving randomization. Each individual dose is tried on three groups of animals.
At the beginning of the test, zero time, the compounds being tested are administered through the parenteral route. In the case of the control animals, at the same time an equal volume of a physiological saline solution is administered except that some blood is removed by means of a cardiac puncture, for the purpose of determining the basal fibrinolytic activity. After 30 minutes, human urokinase (the composition marketed by Ukidan-Serono) is administered intravenously in the amount of 2500 U.I/rat. After an additional period of ten minutes, blood is removed by means of a cardiac puncture for the final determination of F.D.P., a determination which is expressed in […].

Substance: Aprotinin
- % INHIBITION OF EDEMA ([1]; dose 30 U.I.K./kg): 17.3%
- % INHIBITION OF EDEMA ([1]; dose 100 U.I.K./kg): 36.5%
- % INHIBITION OF EDEMA ([1]; dose 300 U.I.K./kg): 54.5%
- % INHIBITION OF EDEMA ([1]; dose 1000 U.I.K./kg): 42.7%
- % MORTALITY ([2]; dose 1000 U.I.K./kg): 50.0%
- % MORTALITY ([2]; dose 3000 U.I.K./kg): 65.0%
- % MORTALITY ([2]; dose 10000 U.I.K./kg): 65.0%
- % MORTALITY ([2]; dose 100000 U.I.K./kg): 93.3%
- % MORTALITY ([3]; dose 3000 U.I.K./kg): 40%
- % MORTALITY ([3]; dose 10000 U.I.K./kg): 55%
- % MORTALITY ([3]; dose 100000 U.I.K./kg): 80%
- F.D.P. ([4]; dose 1000 U.I.K./kg): 0.34 milliliters
- F.D.P. ([4]; dose 3000 U.I.K./kg): 0.29 milliliters
- F.D.P. ([4]; dose 10000 U.I.K./kg): 0.30 milliliters
